Experimental data reported in PubChem BioAssay AID1918991 (Molecular Pharmacology Branch, DTP, NCI, 2023).

Test system: 186277-243-T-J2-PDC complex spheroid growth
Assay: Anticancer human tumor 186277-243-T-J2-PDC patient-derived colon adenocarcinoma cell line growth inhibition [AhR]
Conditions: for IC50: curve of first compound; for viability, T/C: stronger effect = lower value
How it was run: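 Complex tumor spheroids co-cultured with HUVEC and human MSC stroma; AhR antagonists tested in combination with standard-of-care and investigational agents. Top concentration at or near clinical Cmax (else 10 microM), half-log dilutions; growth expressed as percent test/control.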

[1] = second compound 0.1 µM, first compound 0.0316 µM
[2] = second compound 0.1 µM, first compound 0.1 µM
[3] = second compound 0.1 µM, first compound 0.316 µM
[4] = second compound 0.1 µM, first compound 1 µM
[5] = second compound 0.1 µM, first compound 3.16 µM
[6] = second compound 0.1 µM, first compound 10 µM
[7] = second compound 0.316 µM, first compound 0.0316 µM
[8] = second compound 0.316 µM, first compound 0.1 µM
[9] = second compound 0.316 µM, first compound 0.316 µM
[10] = second compound 0.316 µM, first compound 1 µM
[11] = second compound 0.316 µM, first compound 3.16 µM
[12] = second compound 0.316 µM, first compound 10 µM
[13] = second compound 1 µM, first compound 0.0316 µM
[14] = second compound 1 µM, first compound 0.1 µM
[15] = second compound 1 µM, first compound 0.316 µM
[16] = second compound 1 µM, first compound 1 µM
[17] = second compound 1 µM, first compound 3.16 µM
[18] = second compound 1 µM, first compound 10 µM
[19] = second compound 3.16 µM, first compound 0.0316 µM
[20] = second compound 3.16 µM, first compound 0.1 µM
[21] = second compound 3.16 µM, first compound 0.316 µM
[22] = second compound 3.16 µM, first compound 1 µM
[23] = second compound 3.16 µM, first compound 3.16 µM
[24] = second compound 3.16 µM, first compound 10 µM
[25] = second compound 10 µM, first compound 0.0316 µM
[26] = second compound 10 µM, first compound 0.1 µM
[27] = second compound 10 µM, first compound 0.316 µM
[28] = second compound 10 µM, first compound 1 µM
[29] = second compound 10 µM, first compound 3.16 µM
[30] = second compound 10 µM, first compound 10 µM
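Note: spheroids exposed to compounds for seven days before the viability read.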
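Throughout, for viability, T/C: luminescent signal used as a stand-in for viable cell amount; 100% = DMSO vehicle control wells.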

Compound | IC50 (second compound 0.1 µM) | IC50 (second compound 0.316 µM) | IC50 (second compound 1 µM) | IC50 (second compound 3.16 µM) | IC50 (second compound 10 µM) | viability, T/C [1] | viability, T/C [2] | viability, T/C [3] | viability, T/C [4] | viability, T/C [5] | viability, T/C [6] | viability, T/C [7] | viability, T/C [8] | viability, T/C [9] | viability, T/C [13] | viability, T/C [14] | viability, T/C [19] | viability, T/C [20] | viability, T/C [25] | viability, T/C [26] | other results
COc1cc(Nc2ncc3c(n2)-c2ccc(Cl)cc2C(c2c(F)cccc2OC)=NC3)ccc1C(=O)O + CC(CO)NC(=O)c1cc(-c2ccc(Cl)cc2)nn(-c2cnn(C)c2)c1=O | < 31.6 nM | < 31.6 nM | < 31.6 nM | < 31.6 nM | < 31.6 nM | 27.6% | 22.9% | 21.5% | 20.5% | 22.3% | 27.9% | 26.1% | 23.8% | 22.4% | 30.3% | 22% | 26.1% | 24.2% | 23.6% | 22.3% | viability, T/C [10]: 18.9%; viability, T/C [11]: 22.7%; viability, T/C [12]: 22.7%; viability, T/C [15]: 21.9%; viability, T/C [16]: 20.7%; viability, T/C [17]: 22.2%; viability, T/C [18]: 25%; viability, T/C [21]: 20.7%; viability, T/C [22]: 19.3%; viability, T/C [23]: 23%; viability, T/C [24]: 26%; viability, T/C [27]: 21.5%; viability, T/C [28]: 21.2%; viability, T/C [29]: 23.4%; viability, T/C [30]: 26.1%
Cn1ncnc1C1c2n[nH]c(=O)c3cc(F)cc(c23)NC1c1ccc(F)cc1 (stereo not given) + CC(CO)NC(=O)c1cc(-c2ccc(Cl)cc2)nn(-c2cnn(C)c2)c1=O | > 100 nM | > 100 nM | > 100 nM | > 100 nM | > 100 nM | 89.4% | 63.8% | – | – | – | – | 83% | 64.5% | – | 79.4% | 69.3% | 76.5% | 67.7% | 61.9% | 56% | viability, T/C (second compound 0.1 µM, first compound 0.000316 µM): 103%; viability, T/C (second compound 0.1 µM, first compound 0.001 µM): 99.3%; viability, T/C (second compound 0.1 µM, first compound 0.00316 µM): 102%; viability, T/C (second compound 0.1 µM, first compound 0.01 µM): 93.5%; viability, T/C (second compound 0.316 µM, first compound 0.000316 µM): 111%; viability, T/C (second compound 0.316 µM, first compound 0.001 µM): 106%; viability, T/C (second compound 0.316 µM, first compound 0.00316 µM): 93.1%; viability, T/C (second compound 0.316 µM, first compound 0.01 µM): 96.9%; viability, T/C (second compound 1 µM, first compound 0.000316 µM): 102%; viability, T/C (second compound 1 µM, first compound 0.001 µM): 108%; viability, T/C (second compound 1 µM, first compound 0.00316 µM): 118%; viability, T/C (second compound 1 µM, first compound 0.01 µM): 94.6%; viability, T/C (second compound 3.16 µM, first compound 0.000316 µM): 92.7%; viability, T/C (second compound 3.16 µM, first compound 0.001 µM): 109%; viability, T/C (second compound 3.16 µM, first compound 0.00316 µM): 94.7%; viability, T/C (second compound 3.16 µM, first compound 0.01 µM): 86.4%; viability, T/C (second compound 10 µM, first compound 0.000316 µM): 87%; viability, T/C (second compound 10 µM, first compound 0.001 µM): 98.1%; viability, T/C (second compound 10 µM, first compound 0.00316 µM): 84.5%; viability, T/C (second compound 10 µM, first compound 0.01 µM): 72.3%
NS(=O)(=O)OCC1CC(n2ccc3c(NC4CCc5ccccc54)ncnc32)CC1O (stereo not given) + CC(CO)NC(=O)c1cc(-c2ccc(Cl)cc2)nn(-c2cnn(C)c2)c1=O | 205 nM | 193 nM | 150 nM | 139 nM | 110 nM | 102% | 76.7% | 33.5% | 11% | 4.62% | 1.34% | 91.8% | 76.7% | 29.4% | 89.9% | 65.1% | 78.3% | 61.1% | 63.5% | 53.2% | viability, T/C [10]: 10.7%; viability, T/C [11]: 3.18%; viability, T/C [12]: 0.98%; viability, T/C [15]: 22.1%; viability, T/C [16]: 8.96%; viability, T/C [17]: 3.1%; viability, T/C [18]: 1.27%; viability, T/C [21]: 22.9%; viability, T/C [22]: 7.89%; viability, T/C [23]: 2.24%; viability, T/C [24]: 1.06%; viability, T/C [27]: 22%; viability, T/C [28]: 8.3%; viability, T/C [29]: 2.58%; viability, T/C [30]: 1.14%
O=C(C=Cc1cccc(S(=O)(=O)Nc2ccccc2)c1)NO + CC(CO)NC(=O)c1cc(-c2ccc(Cl)cc2)nn(-c2cnn(C)c2)c1=O | 324 nM | 347 nM | 285 nM | 248 nM | 164 nM | 101% | 94.5% | 50.5% | 9.56% | 1.99% | 0.31% | 92.5% | 83.8% | 54.3% | 86.1% | 80.5% | 91.5% | 77.7% | 70.2% | 58.5% | viability, T/C [10]: 10.1%; viability, T/C [11]: 2%; viability, T/C [12]: 0.32%; viability, T/C [15]: 46.7%; viability, T/C [16]: 10.7%; viability, T/C [17]: 1.43%; viability, T/C [18]: 0.32%; viability, T/C [21]: 43.4%; viability, T/C [22]: 8.38%; viability, T/C [23]: 1.57%; viability, T/C [24]: 0.28%; viability, T/C [27]: 37.2%; viability, T/C [28]: 6.55%; viability, T/C [29]: 1.99%; viability, T/C [30]: 0.42%
